Test results published in US9233977B2, “Leucine-rich repeat kinase enzyme activity” (Merck Sharp & Dohme Corp., priority 2010, dated 2016).

Each molecule was assayed against T1, LRRK2 G2019S mutant kinase (Homo sapiens, UniProt Q5S007, G2019S) (assay: LRRK2 G2019S LanthaScreen TR-FRET kinase assay). Conditions: LRRK2 G2019S GST-tagged protein, 75 nM Fluorescein-ERM (LRRKtide), 100 μM ATP, 1 hour at room temperature; read-out: IC50 (potency).
T1 construct: GST; purchased Invitrogen PV4882
T1 sequence (Q5S007 whole entry G2019S): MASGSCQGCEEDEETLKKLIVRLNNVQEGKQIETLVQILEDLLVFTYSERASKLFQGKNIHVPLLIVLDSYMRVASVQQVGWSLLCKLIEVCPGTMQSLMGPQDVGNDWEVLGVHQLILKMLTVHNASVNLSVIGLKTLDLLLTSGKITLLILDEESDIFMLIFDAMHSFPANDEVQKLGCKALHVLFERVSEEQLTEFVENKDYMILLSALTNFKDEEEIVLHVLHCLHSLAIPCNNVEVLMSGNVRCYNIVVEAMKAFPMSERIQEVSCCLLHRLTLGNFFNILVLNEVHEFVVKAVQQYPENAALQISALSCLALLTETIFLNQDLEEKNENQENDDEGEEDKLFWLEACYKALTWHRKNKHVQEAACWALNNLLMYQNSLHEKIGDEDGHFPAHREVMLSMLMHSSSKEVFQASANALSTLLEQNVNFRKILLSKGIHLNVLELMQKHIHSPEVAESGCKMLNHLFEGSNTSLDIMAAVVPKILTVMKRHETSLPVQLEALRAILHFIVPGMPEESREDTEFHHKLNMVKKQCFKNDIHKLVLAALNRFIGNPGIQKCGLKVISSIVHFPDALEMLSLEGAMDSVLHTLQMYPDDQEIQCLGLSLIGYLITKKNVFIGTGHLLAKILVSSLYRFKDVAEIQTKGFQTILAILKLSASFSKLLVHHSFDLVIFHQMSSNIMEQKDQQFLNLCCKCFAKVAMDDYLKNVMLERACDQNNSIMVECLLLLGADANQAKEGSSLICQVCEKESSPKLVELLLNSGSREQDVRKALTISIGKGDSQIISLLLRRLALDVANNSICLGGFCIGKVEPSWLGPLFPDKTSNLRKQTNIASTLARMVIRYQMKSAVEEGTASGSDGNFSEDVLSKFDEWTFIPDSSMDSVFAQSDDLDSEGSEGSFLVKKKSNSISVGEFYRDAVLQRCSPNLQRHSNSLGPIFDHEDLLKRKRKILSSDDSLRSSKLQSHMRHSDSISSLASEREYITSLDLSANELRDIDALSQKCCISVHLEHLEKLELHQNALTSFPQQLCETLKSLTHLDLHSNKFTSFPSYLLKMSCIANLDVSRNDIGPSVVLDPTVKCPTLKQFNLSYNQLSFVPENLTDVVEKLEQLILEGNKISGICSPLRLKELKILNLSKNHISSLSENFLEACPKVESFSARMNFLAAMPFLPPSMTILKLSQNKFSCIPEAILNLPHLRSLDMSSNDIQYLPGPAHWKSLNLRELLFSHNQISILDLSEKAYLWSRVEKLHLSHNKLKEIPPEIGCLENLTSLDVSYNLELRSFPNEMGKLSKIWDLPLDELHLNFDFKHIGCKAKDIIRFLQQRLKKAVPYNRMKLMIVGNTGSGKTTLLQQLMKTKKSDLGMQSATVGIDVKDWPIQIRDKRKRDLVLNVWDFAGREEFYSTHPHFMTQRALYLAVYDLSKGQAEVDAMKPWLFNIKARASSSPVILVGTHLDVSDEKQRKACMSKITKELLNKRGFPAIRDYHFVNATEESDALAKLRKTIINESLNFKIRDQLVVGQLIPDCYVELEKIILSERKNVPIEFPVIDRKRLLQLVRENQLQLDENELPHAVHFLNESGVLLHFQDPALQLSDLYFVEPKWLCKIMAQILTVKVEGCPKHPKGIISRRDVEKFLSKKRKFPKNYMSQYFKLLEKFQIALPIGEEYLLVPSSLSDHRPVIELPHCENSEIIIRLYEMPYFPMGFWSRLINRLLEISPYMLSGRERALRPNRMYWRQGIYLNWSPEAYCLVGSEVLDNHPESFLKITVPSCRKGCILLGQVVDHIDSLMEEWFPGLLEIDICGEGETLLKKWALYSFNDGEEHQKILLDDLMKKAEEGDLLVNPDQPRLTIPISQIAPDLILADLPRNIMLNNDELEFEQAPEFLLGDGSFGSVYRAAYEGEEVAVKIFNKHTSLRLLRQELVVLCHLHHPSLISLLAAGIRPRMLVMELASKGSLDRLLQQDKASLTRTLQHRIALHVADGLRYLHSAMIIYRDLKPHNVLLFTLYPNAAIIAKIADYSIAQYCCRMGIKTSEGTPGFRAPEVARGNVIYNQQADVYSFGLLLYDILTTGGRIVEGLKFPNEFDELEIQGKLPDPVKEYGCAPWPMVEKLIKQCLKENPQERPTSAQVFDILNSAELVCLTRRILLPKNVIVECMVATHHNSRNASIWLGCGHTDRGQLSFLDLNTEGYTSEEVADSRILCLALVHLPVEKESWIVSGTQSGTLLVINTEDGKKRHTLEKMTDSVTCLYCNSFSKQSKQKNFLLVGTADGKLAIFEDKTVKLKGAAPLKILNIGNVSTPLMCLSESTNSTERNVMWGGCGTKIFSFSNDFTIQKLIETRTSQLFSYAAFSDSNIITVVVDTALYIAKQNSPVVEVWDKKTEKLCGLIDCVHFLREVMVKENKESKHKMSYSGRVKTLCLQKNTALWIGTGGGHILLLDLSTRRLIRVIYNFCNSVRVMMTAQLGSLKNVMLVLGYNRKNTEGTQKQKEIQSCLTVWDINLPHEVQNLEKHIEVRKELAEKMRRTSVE
Assay type: biochemical
Experimental: The final solvent concentration in the assay was 1% DMSO. […] Generation of raw data and workup of data to derive the IC50 (potency) and maximal inhibition at concentrations tested were performed using Merck's Assay Data Analyzer (ADA) software.
The IC50 (potency) was evaluated for the example compounds presented above.
Molecule `CCCSc1sc(-c2cc[nH]n2)c2c1C(=O)NCC2C` (stereo in doubt) [Example 28, (7S)-7-methyl-3-(propylsulfanyl)-1-(1H-pyrazol-3-yl)-6,7-dihydrothieno[3,4-c]pyridin-4(5)-one] has an IC50 of 42 nM. `CC1CNC(=O)c2c(SCC3CC3)sc(-c3cc[nH]n3)c21` (stereo in doubt) [Example 29] showed an IC50 of 31 nM. In the case of `CSc1sc(-c2cc[nH]n2)c2c1C(=O)NCC2` [Example 1, 3-(Methylsulfanyl)-1-(1H-pyrazol-3-yl)-6,7-dihydrothieno[3,4-c]pyridin-4(5H)-one], the IC50 is reported as 460 nM. With `CSc1sc(-c2cc[nH]n2)c2c1C(=O)NC(Cc1ccccc1)C2` (centres unmarked) [Example 2, 6-benzyl-3-(methylsulfanyl)-1-(1H-pyrazol-3-yl)-6,7-dihydrothieno[3,4-c]pyridin-4(5)-one] the IC50 was 260 nM. For `CSc1sc(-c2cc[nH]n2)c2c1C(=O)NC(C)C2` (centres unmarked) [Example 3, 6-methyl-3-(methylsulfanyl)-1-(1H-pyrazol-3-yl)-6,7-dihydrothieno[3,4-c]pyridin-4(5)-one], the IC50 was 260 nM. With `CSc1sc(-c2cc[nH]n2)c2c1C(=O)N(C(=O)OC(C)(C)C)C(C)C2` (centres unmarked) [Example 4] the IC50 was 4800 nM. For `CSc1sc(-c2cc[nH]n2)c2c1C(=O)NC1(CCC1)C2` [Example 5, 3′-(methylsulfanyl)-4′-oxo-1′-(1H-pyrazol-3-yl)-7′H-spiro[cyclobutane-1,6′-thieno[3,4-1]pyridine]-4′(5′H)-one], the IC50 was 160 nM. `CSc1sc(-c2cc[nH]n2)c2c1C(=O)N(C(=O)OC(C)(C)C)C1(CCC1)C2` [Example 6, tert-butyl-6-methyl-3′-(methylsulfanyl)-4′-oxo-1′-(1H-pyrazol-3-yl)-7′H-spiro[cyclobutane-1,6′-thieno[3,4-1]pyridine]-5′(4′H)-carboxylate] gave an IC50 of 3100 nM. `CSc1sc(-c2cc[nH]n2)c2c1C(=O)NC1(CC1)C2` [Example 7, 3′-(methylsulfanyl)-4′-oxo-1′-(1H-pyrazol-3-yl)-7′H-spiro[cyclopropanc-1,6′-thieno[3,4-1]pyridine]-4′(5′H)-one] gave an IC50 of 350 nM. In the case of `CSc1sc(-c2cc[nH]n2)c2c1C(=O)NC1(CCCC1)C2` [Example 8, 3′-(methylsulfanyl)-4′-oxo-1′-(1H-pyrazol-3-yl)-7′H-spiro[cyclopentane-1,6′-thieno[3,4-1]pyridine]-4′(5′H)-one], the IC50 is reported as 220 nM. `CSc1sc(-c2cc[nH]n2)c2c1C(=O)NC(C(F)(F)F)C2` (centres unmarked) [Example 9, 6-trifiuoromethyl-3-(methylsulfanyl)-1-(1H-pyrazol-3-yl)-6,7-dihydrothieno[3,4-c]pyridin-4(5)-one] was tested, and the IC50 was 190 nM. `COCC1Cc2c(-c3cc[nH]n3)sc(SC)c2C(=O)N1` (centres unmarked) [Example 11, 6-methoxymethyl-3-(methylsulfanyl)-1-(1H-pyrazol-3-yl)-6,7-dihydrothieno[3,4-c]pyridin-4(5)-one] was tested, and the IC50 was 340 nM. Work on `CSc1sc(-c2cc[nH]n2)c2c1C(=O)NC(CC(C)C)C2` (centres unmarked) [Example 12, 6-(2-methylpropyl)-3-(methylsulfanyl)-1-(1H-pyrazol-3-yl)-6,7-dihydrothieno[3,4-c]pyridin-4(5)-one] yielded an IC50 of 300 nM. In the case of `CSc1sc(-c2cc[nH]n2)c2c1C(=O)NC(C1CC1)C2` (centres unmarked) [Example 13, 6-cyclopropyl-3-(methylsulfanyl)-1-(1H-pyrazol-3-yl)-6,7-dihydrothieno[3,4-c]pyridin-4(5)-one], the IC50 is reported as 450 nM. `CSc1sc(-c2cc[nH]n2)c2c1C(=O)NC(C1CCC1)C2` (centres unmarked) [Example 14, 6-cyclobutyl-3-(methylsulfanyl)-1-(1H-pyrazol-3-yl)-6,7-dihydrothieno[3,4-c]pyridin-4(5)-one] showed an IC50 of 190 nM. With `CSc1sc(-c2cc[nH]n2)c2c1C(=O)N[C@H](c1cc(F)cc(F)c1)C2` [Example 16, (6S)-3-(methylsulfanyl)-6-(3,5-difluorophenyl)-1-(1H-pyrazol-3-yl)-6,7-dihydrothieno[3,4-c]pyridin-4(5)-one] the IC50 was 240 nM. `CSc1sc(-c2cc[nH]n2)c2c1C(=O)N[C@H](c1cccc(F)c1)C2` [Example 17, (6S)-3-(methylsulfanyl)-6-(3-fluorophenyl)-1-(1H-pyrazol-3-yl)-6,7-dihydrothieno[3,4-c]pyridin-4(5)-one] was tested, and the IC50 was 78 nM. `CSc1sc(-c2cc[nH]n2)c2c1C(=O)N[C@H](c1ccc(F)cc1)C2` [Example 18, (6S)-3-(methylsulfanyl)-6-(4-fluorophenyl)-1-(1H-pyrazol-3-yl)-6,7-dihydrothieno[3,4-c]pyridin-4(5)-one] showed an IC50 of 85 nM. Work on `CSc1sc(-c2cc[nH]n2)c2c1C(=O)N[C@H](c1cccnc1)C2` [Example 19, (6S)-3-(methylsulfanyl)-6-(3-pyridyl)-1-(1H-pyrazol-3-yl)-6,7-dihydrothieno[3,4-c]pyridin-4(5)-one] yielded an IC50 of 1500 nM. `CSc1sc(-c2cc[nH]n2)c2c1C(=O)NC(C(=O)OC(C)(C)C)C2` (centres unmarked) [Example 20, tert-butyl-3-(methylsulfanyl)-4-oxo-1-(1H-pyrazol-3-yl)-4,5,6,7-tetrahydrothieno[3,4-c]pyridine-carboxylate] showed an IC50 of 7900 nM. Work on `CSc1sc(-c2cc[nH]n2)c2c1C(=O)NC[C@@H]2C` [Example 21, (7R)-7-methyl-3-(methylsulfanyl)-1-(1H-pyrazol-3-yl)-6,7-dihydrothieno[3,4-c]pyridin-4(5)-one] yielded an IC50 of 160 nM. `CSc1sc(-c2cc[nH]n2)c2c1C(=O)NC[C@H]2C` [Example 22, (7S)-7-methyl-3-(methylsulfanyl)-1-(1H-pyrazol-3-yl)-6,7-dihydrothieno[3,4-c]pyridin-4(5)-one] gave an IC50 of 400 nM. Molecule `CSc1sc(-c2cc[nH]n2)c2c1C(=O)NCC2Cc1ccccc1` (centres unmarked) [Example 25, 7-benzyl-3-(methylsulfanyl)-1-(1H-pyrazol-3-yl)-6,7-dihydrothieno[3,4-c]pyridin-4(5H)-one] has an IC50 of 150 nM. Work on `O=C1NCCc2c(-c3cc[nH]n3)sc(SCC3CC3)c21` [Example 26, 3-[(cyclopropylmethyl)sulfanyl]-1-(1H-pyrazol-3-yl)-6,7-dihydrothieno[3,4-c]pyridin-4(5)-one] yielded an IC50 of 300 nM. `O=C1NCCc2c(-c3cc[nH]n3)sc(SC3CCCC3)c21` [Example 30, 3-(Cyclopentylsulfanyl)-1-(1H-pyrazol-3-yl)-6,7-dihydrothieno[3,4-c]pyridin-4(5H)-one] was tested, and the IC50 was 290 nM. Molecule `CC1Cc2c(-c3cc[nH]n3)sc(SC3CCCC3)c2C(=O)N1` (centres unmarked) [Example 31, 6-methyl-3-(cyclopentylsulfanyl)-1-(1H-pyrazol-3-yl)-6,7-dihydrothieno[3,4-c]pyridin-4(5)one] has an IC50 of 35 nM. `O=C1NC2(CCC2)Cc2c(-c3cc[nH]n3)sc(SC3CCCC3)c21` [Example 32, 3′-(cyclopentylsulfanyl)-4′-oxo-1′-(1H-pyrazol-3-yl)-7′H-spiro[cyclobutane-1,6′-thieno[3,4-1]pyridine]-4′(5′H)-one] showed an IC50 of 140 nM. Work on `O=C1NC(Cc2ccccc2)Cc2c(-c3cc[nH]n3)sc(SC3CCCC3)c21` (centres unmarked) [Example 33, 6-benzyl-3-(cyclopentylsulfanyl)-1-(1H-pyrazol-3-yl)-6,7-dihydrothieno[3,4-c]pyridin-4(5)-one] yielded an IC50 of 530 nM. `CC(C)CC1Cc2c(-c3cc[nH]n3)sc(SC3CCCC3)c2C(=O)N1` (centres unmarked) [Example 34, 6-(2-methylpropyl)-3-(cyclopentylsulfanyl)-1-(1H-pyrazol-3-yl)-6,7-dihydrothieno[3,4-c]pyridin-4(5)-one] was tested, and the IC50 was 110 nM.
